These are literature values, as cited in publication PMC10783161 (RSC Advances, 2024).

For the data set the following is noted: biphasic elimination, slower terminal phase.

With `COc1cc([C@@H]2c3cc4c(cc3[C@@H](O[C@@H]3O[C@@H]5CO[C@@H](C)O[C@H]5[C@H](O)[C@H]3O)[C@H]3COC(=O)[C@H]23)OCO4)cc(OC)c1O` [ETP, etoposide], the terminal phase half-life is 4 to 11 h.
